# Assay results from publication PMC6566875, “Synthesis and characterisation of a new benzamide-containing nitrobenzoxadiazole as a GSTP1-1 inhibitor endowed with high stability to metabolic hydrolysis” (Journal of Enzyme Inhibition and Medicinal Chemistry, 2019).
# Where two headings read alike, the source gives them in different places.
# Legend:
# TRAF2-GSTP1-1 complex = biological target: T1, TRAF2-GSTP1-1 complex (Homo sapiens, UniProt P09211); assay: ELISA for TRAF2-GSTP1-1 protein-protein interaction; format: binding; settings: 20 µM compound, pH 7.0
# T1 construct: made in house; host or cells: E. coli Top 10 (GSTP1-1); E. coli BL21 (DE3) (TRAF2)
# Protocol: The formation of the TRAF2-GSTP1-1 complex was studied as previously described. Briefly, 200 µL of His-tagged TRAF2 C-terminal domain (0.005 µM in 20 mM Tris–HCl, pH 7.6, containing 150 mM NaCl and 10% glycerol) were added to each well of a 96-well His-Sorb plate (Qiagen, Hilden, Germany) and incubated overnight, at 4 °C, on a rocking platform. Afterwards, wells were washed with PBS and incubated for 30 min with GSTP1-1 (concentration range from 0.1 to 2 µM) in 10 mM potassium phosphate buffer, pH 7.0, containing 0.1 mM EDTA. Incubation with GSTP1-1 was also performed in the presence of 1 (20 µM), 3 (20 µM) or 4 (20 µM), both in the absence and presence of GSH (1 mM). At the end of incubation, the wells were washed with PBS and then filled with 200 µL of a mouse anti-GSTP1-1 antibody (Cell Signalling, Beverly, MA, USA; 1:1000 in TBS containing 0.1% Tween and 5% non-fat dry milk) for 2 h at room temperature. Subsequently, wells were washed with PBS and incubated with an antimouse IgG antibody (Cell Signalling; 1:1000 in TBS containing 0.1% Tween and 5% non-fat dry milk) for 45 min at room temperature. The immunocomplexes were detected by the addiction of 200 µL/well of the 1-Step-Turbo TMB substrate solution (Pierce, Rockford, IL, USA). The reaction was stopped after 10 min by the addition of 50 µL of 2M H2SO4, and the absorbance was measured at 450 nm. Data were analysed by fitting to Equation (1) where ν is the percentage of the saturated binding sites of TRAF2; [P]t and [L]t are the total concentrations of monomeric GSTP1-1 and TRAF2, respectively.
# human GSTP1-1 [1] = biological target: T2, human GSTP1-1 (Homo sapiens, UniProt P09211); settings: 1 mM GSH, 1 mM CDNB, pH 6.5, 25 °C; read-out: GSTP1-1 inhibition assay IC50; cited from earlier work
# T2 construct: made in house; host or cells: E. coli Top 10
# human GSTP1-1 [2] = biological target: T2, human GSTP1-1; assay: GSTP1-1 catalytic activity inhibition (CDNB-GSH conjugation, spectrophotometric); format: biochemical; settings: detergent-free buffer
# Protocol: The enzymatic activity of GSTP1-1 (20 nM subunits) was spectrophotometrically assayed at 340 nm (ε = 9,600 M^−1 cm^−1) and at 25 °C, by measuring the rate of 1-cloro-2,4-dinitrobenzene (CDNB) conjugation with GSH as a function of time[20]. The assay mixture contained 1 mM GSH and 1 mM CDNB in 1 mL of buffer B (0.1 M potassium phosphate buffer, pH 6.5 containing 0.1 mM EDTA).
# T2 sequence (P09211 2-210 limits assumed): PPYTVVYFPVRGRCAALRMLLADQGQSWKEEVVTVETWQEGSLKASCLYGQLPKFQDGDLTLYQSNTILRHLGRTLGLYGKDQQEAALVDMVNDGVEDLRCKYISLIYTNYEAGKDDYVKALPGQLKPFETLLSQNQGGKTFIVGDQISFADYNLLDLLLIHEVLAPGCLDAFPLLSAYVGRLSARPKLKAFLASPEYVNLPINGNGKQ
# T1 sequence (P09211 2-210 limits assumed, one chain of several): as the sequence (P09211 2-210 limits assumed) above
Maximal inhibition of GSTP1-1 conjugation activity (human GSTP1-1 [2]; 0.01-20 µM compound),"IC50 (human GSTP1-1 [2]; 1 mM GSH, 1 mM CDNB, pH 6.5, 25 °C) [nM]","Ki (human GSTP1-1 [2]; 1 mM GSH, 1 mM CDNB, pH 6.5, 25 °C, read-out: Ki app (GSTP1-1 enzyme activity)) [nM]",Extent of inhibition of GSTP1-1 enzyme activity (human GSTP1-1 [2]; 0.01-20 µM compound),Compound,Effect on TRAF2-GSTP1-1 complex formation (TRAF2-GSTP1-1 complex; presence of GSH (1 mM)),IC50 (human GSTP1-1 [1]) [nM],Effect on TRAF2-GSTP1-1 complex formation (TRAF2-GSTP1-1 complex; absence of GSH)
–,–,–,–,"O=[N+]([O-])c1ccc(SCCCCCCO)c2nonc12 [Compound 1, 6-((7-nitrobenzo[c][1,2,5]oxadiazol-4-yl)thio)hexan-1-ol, reference compound]",overlaps those obtained with 3 and 4,–,–
no more than 50%,–,–,–,"O=C(OCCCCCCSc1ccc([N+](=O)[O-])c2nonc12)c1ccccc1 [Compound 3, 6-((7-nitrobenzo[c][1,2,5]oxadiazol-4-yl)thio)hexyl benzoate, reference compound]",–,600 ± 300,–
–,700 ± 100,700 ± 100,completely inhibited,"O=C(NCCCCCCSc1ccc([N+](=O)[O-])c2nonc12)c1ccccc1 [Compound 4, N-(6-((7-nitrobenzo[c][1,2,5]oxadiazol-4-yl)thio)hexyl)benzamide]",inhibited TRAF2-GST-P1-1 complex formation,–,inhibited TRAF2-GST-P1-1 complex formation
